According to patent US11780826B2 (Amgen Inc., priority 2017, dated 2023):

Test system: Bovine cardiac myofibrils
Experiment: In vitro model of dose-dependent myofibril ATPase modulation (AC1.4, pyruvate kinase/lactate dehydrogenase-coupled ATPase assay at pCa25)
Assay type: biochemical
Conditions: concentration at which ATPase activity was 1.4-fold higher than the bottom of the dose curve, mean of a minimum of two independent tests
Method in brief: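 Bovine cardiac myofibrils, detergent-treated; 0.25-1.0 mg/ml. Buffer: K-PIPES 12 mM, MgCl2 2 mM, DTT 1 mM, BSA 0.1 mg/ml, pH 6.80, 22° C; Ca2+ set by EGTA/CaCl2. ATP 1 mM, NADH/PEP-coupled, A340. 4-parameter fit; n≥2.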

Structure (SMILES)	AC1.4
C[C@@H](NC(=O)[C@H]1CCCN1C(=O)[C@H]1CCCN(S(=O)(=O)N2CC(C#N)C2)C1)c1ccc(C(F)(F)F)cc1 [Example 84, 1-(((3S)-1-((3-cyano-1-azetidinyl)sulfonyl)-3-piperidinyl)carbonyl)-N-((1R)-1-(4-(trifluoromethyl)phenyl)ethyl)-D-prolinamide]	0.1147 µM
CC[C@H](NC(=O)[C@H]1CCCN1C(=O)c1cccc(S(=O)(=O)N2CC(C#N)C2)c1)c1ccc(C(F)(F)F)cc1 [Example 85, 1-(3-((3-cyano-1-azetidinyl)sulfonyl)benzoyl)-N-((1S)-1-(4-(trifluoromethyl)phenyl)propyl)-D-prolinamide]	0.1157 µM
N#CC1CN(S(=O)(=O)N2CCC[C@H](C(=O)N3C[C@H]4C[C@H]4[C@@H]3C(=O)NCc3ccc(C(F)(F)F)cc3)C2)C1 [Example 90, (1R,2R,5S)-3-(((3S)-1-((3-cyano-1-azetidinyl)sulfonyl)-3-piperidinyl)carbonyl)-N-(4-(trifluoromethyl)benzyl)-3-azabicyclo[3.1.0]hexane-2-carboxamide]	0.1363 µM
N#CC1CN(S(=O)(=O)c2cccc(C(=O)N3Cc4ccccc4C3C(=O)NCc3ccc(C(F)(F)F)cc3)c2)C1 (stereo not shown) [Example 93, 2-((3-((3-cyano-1-azetidinyl)sulfonyl)phenyl)carbonyl)-N-(4-(trifluoromethyl)benzyl)-2,3-dihydro-1H-isoindole-1-carboxamide]	0.1413 µM
O=C(N[C@@H](c1cc(F)c(Cl)cc1F)C1COC1)[C@H]1C[C@H]2C[C@H]2N1C(=O)c1cccc(S(=O)(=O)CCO)c1 [Example 94, (1R,3R,5R)-N-((R)-(4-chloro-2,5-difluorophenyl)(3-oxetanyl)methyl)-2-(3-((2-hydroxyethyl)sulfonyl)benzoyl)-2-azabicyclo[3.1.0]hexane-3-carboxamide]	0.1425 µM
Cc1ccc([C@@H](C)NC(=O)[C@H]2CCCN2C(=O)[C@H]2CCCN(S(=O)(=O)N3CC(C#N)C3)C2)c(F)c1 [Example 98, 1-(((3S)-1-((3-cyano-1-azetidinyl)sulfonyl)-3-piperidinyl)carbonyl)-N-((1R)-1-(2-fluoro-4-methylphenyl)ethyl)-D-prolinamide]	0.1474 µM
CC(C)(C)Nc1ccc(S(C)(=O)=O)cc1C(=O)N1[C@@H](C(=O)N[C@@H](c2ccc(C(F)(F)F)cc2F)C2CC2)C[C@H]2C[C@H]21 [Example 101, (1R,3R,5R)-N-((R)-cyclopropyl(2-fluoro-4-(trifluoromethyl)phenyl)methyl)-2-(2-((2-methyl-2-propanyl)amino)-5-(methylsulfonyl)benzoyl)-2-azabicyclo[3.1.0]hexane-3-carboxamide]	0.1559 µM
N#CC1CN(S(=O)(=O)c2cccc(C(=O)N3CCC[C@@H]3C(=O)NCc3ccc(C(F)F)cc3)c2)C1 [Example 102, 1-((3-((3-cyano-1-azetidinyl)sulfonyl)phenyl)carbonyl)-N-(4-(difluoromethyl)benzyl)-D-prolinamide]	0.1574 µM
N#CC1CN(S(=O)(=O)c2cccc(C(=O)N3CCC[C@@H]3C(=O)N[C@@H](CO)c3ccc(Cl)c(F)c3)c2)C1 [Example 105, N-((1R)-1-(4-chloro-3-fluorophenyl)-2-hydroxyethyl)-1-(3-((3-cyano-1-azetidinyl)sulfonyl)benzoyl)-D-prolinamide]	0.1638 µM
CCNc1ccc(C)cc1C(=O)N1CCC[C@@H]1C(=O)N[C@@H](c1ccc(C(F)(F)F)cc1F)C1CC1 [Example 108, N-((R)-cyclopropyl(2-fluoro-4-(trifluoromethyl)phenyl)methyl)-1-(2-(ethylamino)-5-methylbenzoyl)-D-prolinamide]	0.1689 µM
N#CC1CN(S(=O)(=O)N2CCC[C@H](C(=O)N3CCOC[C@@H]3C(=O)NCc3ccc(C(F)(F)F)cc3)C2)C1 [Example 109, (3R)-4-(((3S)-1-((3-cyano-1-azetidinyl)sulfonyl)-3-piperidinyl)carbonyl)-N-(4-(trifluoromethyl)benzyl)-3-morpholinecarboxamide]	0.1712 µM
CCNc1ccc(C)cc1C(=O)N1C[C@@H](O)C[C@@H]1C(=O)N[C@@H](c1cc(F)c(Cl)cc1F)C1COC1 [Example 110, (4S)-N-((R)-(4-chloro-2,5-difluorophenyl)(3-oxetanyl)methyl)-1-(2-(ethylamino)-5-methylbenzoyl)-4-hydroxy-D-prolinamide]	0.1732 µM
O=C(N[C@@H](c1cc(F)c(C(F)(F)F)cc1F)C1CC1)[C@H]1C[C@H]2C[C@H]2N1C(=O)c1cccc(C(F)(F)F)c1 [Example 115, (1R,3R,5R)-N-((R)-cyclopropyl(2,5-difluoro-4-(trifluoromethyl)phenyl)methyl)-2-(3-(trifluoromethyl)benzoyl)-2-azabicyclo[3.1.0]hexane-3-carboxamide]	0.1774 µM

Results, then the compound that gave them:

AC1.4	Structure (SMILES)
0.1344 µM	N#CC1CN(S(=O)(=O)N2CCC[C@H](C(=O)N3CCC[C@@H]3C(=O)N[C@H](CO)c3ccc(C(F)(F)F)cc3)C2)C1 [Example 88, 1-(((3S)-1-((3-cyano-1-azetidinyl)sulfonyl)-3-piperidinyl)carbonyl)-N-((1S)-2-hydroxy-1-(4-(trifluoromethyl)phenyl)ethyl)-D-prolinamide]
0.1357 µM	CCCS(=O)(=O)c1cccc(C(=O)N2CCCC[C@@H]2C(=O)N[C@@H](c2ccc(C(F)(F)F)cc2F)C2CC2)c1 [Example 89, (2R)-N-((R)-cyclopropyl(2-fluoro-4-(trifluoromethyl)phenyl)methyl)-1-(3-(propylsulfonyl)benzoyl)-2-piperidinecarboxamide]
0.1388 µM	O=C(N[C@@H](c1cc(F)c(Cl)cc1F)C1CC1)[C@H]1C[C@H]2C[C@H]2N1C(=O)c1cccc(S(=O)(=O)C2CC2)c1 [Example 92, (1R,3R,5R)-N-((R)-(4-chloro-2,5-difluorophenyl)(cyclopropyl)methyl)-2-(3-(cyclopropylsulfonyl)benzoyl)-2-azabicyclo[3.1.0]hexane-3-carboxamide]
0.1446 µM	N#CC1CN(S(=O)(=O)c2cccc(C(=O)N3CC(F)(F)C[C@@H]3C(=O)NCc3ccc(C(F)(F)F)nc3)c2)C1 [Example 95, 1-((3-((3-cyano-1-azetidinyl)sulfonyl)phenyl)carbonyl)-4,4-difluoro-N-((6-(trifluoromethyl)-3-pyridinyl)methyl)-D-prolinamide]
0.1452 µM	N#CC1CN(S(=O)(=O)c2cccc(C(=O)N3CCCCCC3C(=O)NCc3ccc(C(F)(F)F)cc3)c2)C1 (stereo not shown) [Example 96, (2)-1-((3-((3-cyano-1-azetidinyl)sulfonyl)phenyl)carbonyl)-N-(4-(trifluoromethyl)benzyl)-2-azepanecarboxamide]
0.1466 µM	COCC(NC(=O)[C@H]1CCCN1C(=O)[C@H]1CCCN(S(=O)(=O)N2CC(C#N)C2)C1)c1ccc(Cl)cc1 (stereo partly drawn) [Example 97, N-(-1-(4-chlorophenyl)-2-methoxyethyl)-1-(((3S)-1-((3-cyano-1-azetidinyl)sulfonyl)-3-piperidinyl)carbonyl)-D-prolinamide]
0.1484 µM	N#CC1CN(S(=O)(=O)N2CCC[C@H](C(=O)N3CCC[C@@H]3C(=O)NCc3ccc(Cl)cc3Cl)C2)C1 [Example 99, 1-(((3S)-1-((3-cyano-1-azetidinyl)sulfonyl)-3-piperidinyl)carbonyl)-N-(2,4-dichlorobenzyl)-D-prolinamide]
0.1502 µM	N#CC1CN(S(=O)(=O)c2cccc(C(=O)N3CCC[C@@H]3C(=O)NCc3cc(F)cc(F)c3F)c2)C1 [Example 100, 1-(3-((3-cyano-1-azetidinyl)sulfonyl)benzoyl)-N-(2,3,5-trifluorobenzyl)-D-prolinamide]
0.1585 µM	N#CC1CN(S(=O)(=O)N2C[C@H]3C[C@@H]2[C@H](C(=O)N2CCC[C@@H]2C(=O)NCc2ccc(C(F)(F)F)cc2F)C3)C1 [Example 103, 1-(((1R,4R,6R)-2-((3-cyano-1-azetidinyl)sulfonyl)-2-azabicyclo[2.2.1]hept-6-yl)carbonyl)-N-(2-fluoro-4-(trifluoromethyl)benzyl)-D-prolinamide]
0.1611 µM	C[C@@H](NC(=O)[C@H]1CCCN1C(=O)[C@H]1CCCN(S(=O)(=O)N2CC(C#N)C2)C1)c1ccc(C(F)F)cc1F [Example 104, 1-(((3S)-1-((3-cyano-1-azetidinyl)sulfonyl)-3-piperidinyl)carbonyl)-N-((1R)-1-(4-(difluoromethyl)-2-fluorophenyl)ethyl)-D-prolinamide]
0.164 µM	Cc1ccc(CNC(=O)[C@H]2CCCN2C(=O)c2cccc(S(=O)(=O)N3CC(C#N)C3)c2)cc1 [Example 106, 1-((3-((3-cyano-1-azetidinyl)sulfonyl)phenyl)carbonyl)-N-(4-methylbenzyl)-D-prolinamide]
0.1642 µM	N#CC1CN(S(=O)(=O)N2CCC[C@H](C(=O)N3CCC[C@@H]3C(=O)N[C@H](c3ccc(C(F)(F)F)cc3)C3CC3)C2)C1 [Example 107, 1-(((3S)-1-((3-cyano-1-azetidinyl)sulfonyl)-3-piperidinyl)carbonyl)-N-((S)-cyclopropyl(4-(trifluoromethyl)phenyl)methyl)-D-prolinamide]
0.1762 µM	O=C(N[C@@H](c1cc(F)c(Cl)cc1F)C1CC1)[C@H]1C[C@H]2C[C@H]2N1C(=O)c1cccc(S(=O)(=O)CCO)c1 [Example 112, (1R,3R,5R)-N-((R)-(4-chloro-2,5-difluorophenyl)(cyclopropyl)methyl)-2-(3-((2-hydroxyethyl)sulfonyl)benzoyl)-2-azabicyclo[3.1.0]hexane-3-carboxamide]
0.1771 µM	CN(C)S(=O)(=O)c1cccc(C(=O)N2CCC[C@@H]2C(=O)N[C@@H](c2ccc(Cl)c(F)c2)C2CC2)c1 [Example 114, N-((R)-(4-chloro-3-fluorophenyl)(cyclopropyl)methyl)-1-(3-(dimethylsulfamoyl)benzoyl)-D-prolinamide]
0.179 µM	N#CC1CN(S(=O)(=O)N2CCO[C@H](C(=O)N3CCC[C@@H]3C(=O)NCc3ccc(C(F)(F)F)cc3F)C2)C1 [Example 116]
